Assay results taken from patent publication US20230381204A1, “COMPOSITIONS FOR TREATING INFLAMMATIONS, WOUNDS AND SCARRING” (priority 2020, published 2023).

Columns and labels:
[1] = tested on: IL-1α; test: LPS-induced IL-1α secretion in RAW 264.7 cells (ELISA); assay type: cell-based; conditions: Mus musculus, read-out: IL-1 alpha inhibition
Description: (§1) RAW 264.7 cells ([…] ¢/ml, by counting) were seeded in 96 well plates containing 170 μl/well of complete growth medium (See formulation section). The cells were incubated at 37° C. with 5% CO2 for 24 hr. The medium was aspirated and replaced by LPS-containing medium (25 ng/ml) with or without the Tested Samples at two different concentrations (similarly to what is presented in Table 1). In addition, Naïve cells (Group 1), vehicle treated cells (Group 2), Stimulated Control (Group 3) and Stimulated Vehicle Control (Group 4) served as negative controls. SDS (Group 5) and Dexamethasone (Group 6) served as positive controls for viability and anti-inflammatory assays, respectively. A Blank control group was included in the assay (Group 11), and subtracted from all treatments.
(§2) The cells were incubated at 37° C. with 5% CO2 for 24 hr. At the end of incubation, the viability of the cells was measured using the MTT assay, according to SOP. […] IL-1α, TNFα and IL-6 levels were measured by ELISA, according to manufacturer instructions. […]
(§3) The anti-inflammatory activity of the Tested Samples was examined in the LPS-induced inflammatory model (RAW 264.7 cells) and the secretion of three cytokines was monitored. Then, the compatibility and possible synergistic action of selected combination was determined. IL-1α, TNFα and IL-6 levels were measured by ELISA, according to manufacturer instructions.

[2] = tested on: TNFα; test: LPS-induced TNFα secretion in RAW 264.7 cells (ELISA); assay type: cell-based, Mouse
Description: RAW 264.7 cells (170×105 ¢/ml, by counting) were seeded in 96 well plates containing 170 μl/well of complete growth medium (See formulation section). The cells were incubated at 37° C. with 5% CO2 for 24 hr. The medium was aspirated and replaced by LPS-containing medium (25 ng/ml) with or without the Tested Samples at two different concentrations (similarly to what is presented in Table 1). In addition, Naïve cells (Group 1), vehicle treated cells (Group 2), Stimulated Control (Group 3) and Stimulated Vehicle Control (Group 4) served as negative controls. SDS (Group 5) and Dexamethasone (Group 6) served as positive controls for viability and anti-inflammatory assays, respectively. A Blank control group was included in the assay (Group 11), and subtracted from all treatments.
The cells were incubated at 37° C. with 5% CO2 for 24 hr. At the end of incubation, the viability of the cells was measured using the MTT assay, according to SOP. Viability greater than 85% was considered nontoxic. In addition, the spent media from all test groups was collected under standardized conditions and centrifuged at 250×g for 5 min to remove particulates. Clear supernatants were frozen at −70° C. until cytokine analysis. IL-1α, TNFα and IL-6 levels were measured by ELISA, according to manufacturer instructions.
Cell culturing and treatments was performed under sterile conditions. Experiments were carried out in a certified RAW 264.7 cells (Mouse monocyte macrophage) obtained originally from ECACC. The cells were incubated at 37° C. with 5% CO2 for 24 hr. Then, the medium
was aspirated and replaced by LPS-containing medium (25 ng/ml) with or without the Tested Samples. In addition, Naïve cells, vehicle treated cells, Stimulated Control and Stimulated Vehicle Control served as negative controls. Dexamethasone served as positive controls for anti-inflammatory assays. Blank control group was included in the assay, and subtracted from all treatments.
The anti-inflammatory activity of the Tested Samples was examined in the LPS-induced inflammatory model (RAW 264.7 cells) and the secretion of three cytokines was monitored. […] IL-1α, TNFα and IL-6 levels were measured by ELISA, according to manufacturer instructions.
Experiments were carried out in a certified RAW 264.7 cells (Mouse monocyte macrophage) obtained originally from ECACC. RAW 264.7 cells (approx. 2×105 ¢/ml, by counting) were seeded in 96 well plates containing 170 μl/well of complete growth medium. The cells were incubated at 37° C. with 5% CO2 for 24. Next, the medium was aspirated and replaced by LPS-containing medium (25 ng/ml) with or without the Tested Samples.
In addition, Naïve cells, vehicle treated cells, Stimulated Control and Stimulated Vehicle Control served as controls (FIG. 4A). […]

[3] = tested on: IL-6; test: LPS-induced IL-6 secretion in RAW 264.7 cells (ELISA); assay type: cell-based; conditions: Mus musculus, RAW264.7, LPS 25 ng/ml, 24 hr
Description: as §1, §2, §3

[4] = tested on: RAW 264.7 cells; test: MTT cell viability (toxicity evaluation) in RAW 264.7 cells; assay type: cell-based, Mouse; conditions: positive control for viability, 0.1%; 24 hr
Description: The assay was performed on 15 Tested Samples in triplicates (the Tested Samples are labeled 1-11 and 13-16). RAW 264.7 cells (1.7×10^5 ¢/ml, by counting) were seeded in 96 well plates containing […] of complete growth medium (see formulation section). The cells were incubated at 37° C. with 5% CO2 for 24 hr. The medium was aspirated and replaced by LPS-containing medium (25 ng/ml) with or without the Tested Samples at four different concentrations, as described below. In addition, Naive cells (Group 1), vehicle treated cells (Group 2), Stimulated Control (Group 3) and Stimulated Vehicle Control (Group 4) served as negative controls. SDS (Group 5) and Dexamethasone (Group 6) served as positive controls for viability and anti-inflammatory assays, respectively. The blank control group was included in the assay (Group 11), and subtracted from all treatments. The cells were incubated at 37° C. with 5% CO2 for 24 hr. At the end of incubation, the viability of the cells was measured using the MTT assay. Viability greater than 85% was considered nontoxic.

Compound C=C(C)[C@@H]1CCC(C)=C[C@H]1c1c(O)cc(CCCCC)cc1O [CBD, cannabidiol] has an inhibition at 0.5 µg/mL ([1]; RAW264.7, 0.5 μg/ml alone, LPS 25 ng/ml, 24 hr) of 7.6%, an inhibition at 0.1 µg/mL ([2]; Mus musculus, RAW264.7, 0.1 μg/ml alone, LPS 25 ng/ml, 24 hr, read-out: TNF alpha inhibition) of 12.3% and an inhibition at 0.5 µg/mL ([2]; Mus musculus, RAW264.7, 0.5 μg/ml alone, LPS 25 ng/ml, 24 hr, read-out: TNF alpha inhibition) of 22.6%. For the same compound, the inhibition at 0.1 µg/mL ([3]; 0.1 μg/ml alone) was 8.2% and the inhibition at 0.5 µg/mL ([3]; 0.5 μg/ml alone) was 10.6%.
CCCCCc1cc(O)c(C/C=C(\C)CCC=C(C)C)c(O)c1 [CBG, cannabigerol] was tested, and the inhibition at 2 µg/mL ([1]; RAW264.7, 24 h) was 12.9% and the inhibition at 2 µg/mL ([2]; Mus musculus, RAW264.7, 24 h, read-out: TNF alpha inhibition) was 26.8%.
For CCCCCCCCCCCCOS(=O)(=O)[O-].[Na+] [SDS], the “cell viability (MTT)” value [4] was “toxic and caused a significant reduction in cell viability”.
With NC(=O)NC1NC(=O)NC1=O (stereo not drawn) [allantoin] the TNF alpha inhibition ([2]; 2 μg/ml alone, LPS 25 ng/ml) was “no activity”.
